Reference: patent US20100068200A1, “Methods and Compositions for Inhibiting Atherosclerosis and Vascular Inflammation” (THE UNIVERSITY OF CONNECTICUT, priority 2008, published 2010)
Where a SMILES comes first, the peptide text is derived from it. The star is where a group is joined. Cbz = O=C(OCc1ccccc1)*

Experiments:
[1] = system: caspase-11; experiment: caspase-11 protein expression in elicited peritoneal macrophages (western blot); format: cell-based; conditions: mouse elicited peritoneal macrophages; oxLDL 50 μg/ml or TNFα 50 ng/ml, 8 hrs
Description: Isolation of Thioglycolate-Elicited Peritoneal Cells. Mice were injected i.p. with 2 ml of 3% thioglycolate. Four days later, the peritoneal fluid was collected, and cells monolayer was prepared by addition of 1 ml/well (2×10^6 macrophages) into 35 mm culture dishes. Macrophage adhesion was allowed to proceed for 4 h at 37° C. in a 5% CO2 atmosphere.
Immunoprecipitation experiments. Cell or spleen extracts were prepared with RIPA buffer (25 mM Tris-HCl pH 7.6, 150 mM NaCl, 1% NP-40, 1% sodium deoxycholate, 0.1% SDS). Caspase-1 was immunoprecipitated with polyclonal rabbit anti-caspase-1 antibody (Santa Cruz) crosslinked to protein A beads and Caspase-11 was immunoprecipitated with monoclonal rat anti-caspase-11 antibody, crosslinked to protein G beads. For western blot analysis, BMDM were treated with LPS (1 μg/ml, E. coli serotype 026:B6; Sigma). Aortas or cells were solubilized in RIPA buffer or 2×SDS-sample buffer (20 mM DTT, 6% SDS, 0.25 M Tris pH 6.8, 10% Glycerol, bromophenyl blue, protease inhibitors, 1 mM sodium orthovanadate and 1 mM NaF), sonicated, boiled and separated by SDS-PAGE gel electrophoresis. […] Cells were treated as indicated with 1 μg/ml LPS (Sigma) and 50 ng/ml TNFα (Sigma) Immunoreactive bands density was quantified with Image Pro Plus Analysis Software (Media Cybernetics).

[2] = system: S1p2r−/− macrophage; experiment: reversal of caspase-11 null phenotype of S1p2r−/− macrophage; format: cell-based, mouse; conditions: MG132 1-20 μM, chloroquine 10-100 μM, data not shown

Compound | caspase-11 protein expression after stimulus [1] | reversal of caspase-11 null phenotype [2]
TNFα | upregulates | 
CC(C)C[C@@H](C=O)NC(=O)[C@H](CC(C)C)NC(=O)[C@H](CC(C)C)NC(=O)OCc1ccccc1 [MG132] (Cbz-Leu-Leu-Leu-aldehyde) |  | could not reverse
